From patent publication US20240108740A1, “THERAPEUTIC COMPOSITIONS INCLUDING SPN10 AND USES THEREOF” (Stealth BioTherapeutics Inc., priority 2022, published 2024)
Residues, ends and D or L forms follow the SMILES beside them.

Test system: Sprague-Dawley rats
Experiment: Example 56: diabetic retinopathy in STZ and HFD/STZ rats
Type: in vivo, rat
Procedure: A rat model of diabetes will be established by combination of 6-week HFD and either 1) a low-dose STZ (30 mg/kg) injection, or 2) a single high dose of STZ (65 mg/kg) in Sprague-Dawley rats. See generally, Srinivasan, et al., Pharm. Res. 52(4):313-320 (2005). Controls will be maintained on normal rat chow (NRC). Treatment groups will be as follows: • Group A: 12 HFD/STZ peptide conjugates 10 mg/kg s.c • Group B: 12 HFD/STZ peptide conjugates 3 mg/kg s.c. • Group C: 12 HFD/STZ peptide conjugates 1 mg/kg s.c. • Group D: 10 HFD/STZ control vehicle. s.c. • Group E: 10 NRC control vehicle. s.c. • Group F: 12 HFD/STZ aromatic-cationic peptide (an equivalent molar dose of aromatic-cationic peptide based on concentration of the aromatic-cationic peptide administered in the 10 mg/kg s.c.q.d. peptide conjugate group) • Group G: 12 HFD/STZ aromatic-cationic peptide (an equivalent molar dose of aromatic-cationic peptide based on concentration of the aromatic-cationic peptide administered in the 3 mg/kg s.c.q.d. peptide conjugate group) • Group H: 12 HFD/STZ aromatic-cationic peptide (an equivalent molar dose of aromatic-cationic peptide based on concentration of the aromatic-cationic peptide administered in the 1 mg/kg s.c.q.d. peptide conjugate group) • Group I: 12 HFD/STZ SPN10 (an equivalent molar dose of SPN10 based on concentration of SPN10 administered in the 10 mg/kg s.c.q.d. peptide conjugate group) • Group J: 12 HFD/STZ SPN10 (an equivalent molar dose of SPN10 based on concentration of SPN10 administered in the 3 mg/kg s.c.q.d. peptide conjugate group) • Group K: 12 HFD/STZ SPN10 (an equivalent molar dose of SPN10 based on concentration of SPN10 administered in the 1 mg/kg s.c.q.d. peptide conjugate group). • Group L: SPN10(s) in combination with aromatic-cationic peptides (e.g., an equivalent molar dose of SPN10 based on the concentration of SPN10 administered in the 10 mg/kg s.c.q.d. peptide conjugate treatment group and an equivalent molar dose of aromatic-cationic peptide based on the concentration of aromatic-cationic peptide administered in the 10 mg/kg s.c.q.d. peptide conjugate treatment group) • Group M: SPN10(s) in combination with aromatic-cationic peptides (e.g., an equivalent molar dose of SPN10 based on the concentration of SPN10 administered in the 3 mg/kg s.c.q.d. peptide conjugate treatment group and an equivalent molar dose of aromatic-cationic peptide based on the concentration of aromatic-cationic peptide administered in the 3 mg/kg s.c.q.d. peptide conjugate treatment group) • Group N: SPN10(s) in combination with aromatic-cationic peptides (e.g., an equivalent molar dose of SPN10 based on the concentration of SPN10 administered in the 1 mg/kg s.c.q.d. peptide conjugate treatment group and an equivalent molar dose of aromatic-cationic peptide based on the concentration of aromatic-cationic peptide administered in the 1 mg/kg s.c.q.d. peptide conjugate treatment group)
Eyes will be harvested and subjects assessed for cataract formation, epithelial changes, integrity of the blood-retinal barrier, retinal microvascular structure, and retinal tight junction structure using methods known in the art.

N=C(N)NCCC[C@H](NC(=O)[C@@H](N)Cc1c[nH]c2ccccc12)C(=O)N[C@@H](Cc1c[nH]c2ccccc12)C(=O)N[C@@H](CCCCN)C(N)=O [SPN10, H-L-Trp-L-Arg-L-Trp-L-Lys-NH2] (H-WRWK-NH2)
non-uniform distribution of tight junctions (claudin-5) along retinal vessels (HFD/STZ subjects): prevent, reverse, or attenuate this effect | retinal microvascular changes (STZ or HFD/STZ rats): reduce retinal microvascular changes | epithelial cellular changes (STZ rat model and HFD/STZ rat model): reduce epithelial cellular changes | inner blood-retinal barrier function (compared to control subjects): improved inner blood-retinal barrier function | cataract formation in the lenses of diabetic rats (rat, in vivo): prevention or reversal of cataract formation
